We go through two compounds from ChEMBL document CHEMBL1139661, “Arylaminoethyl amides as noncovalent inhibitors of cathepsin S. Part 2: Optimization of P1 and N-aryl” (Bioorg Med Chem Lett, 2006).

Common to all, as to assay type: ADME, organism-based
A short description of series [1]: AUC in Wistar rat at 10 mg/kg, po. The conditions noted are these: plasma. Also on record: dose 10 mg/kg, route oral.
Series [2] is described as follows: (§1) Half life in Wistar rat at 10 mg/kg. Further details: dose 10 mg/kg. The conditions noted are these: Wistar, in vivo.
Series [3] in a line: Oral bioavailability in Wistar rat at 10 mg/kg, po. The conditions noted are these: in vivo.
A short description of series [4]: Cmax in Wistar rat at 10 mg/kg, po. Also on record: dose 10 mg/kg, route oral. The conditions noted are these: in vivo.
The subject of a further series is Rattus norvegicus. The description is as §1. Further details: dose 10 mg/kg. The conditions noted are these: in vivo.

The structures appear in SMILES notation.

The term AUC denotes concentration integrated over time. Read a high AUC as high exposure. What is called half-life is the time needed for the level to fall by half in the phase considered. Read a high half-life as slow decline. A word on the bioavailability: it is the share of a dose that reaches the circulation, judged against a reference dose that is usually intravenous. The Cmax is the highest concentration seen after dosing.

As to `COc1cccc(C(=O)N[C@@H](CC(C)(C)C)C(=O)N[C@@H](CC(=O)O)CN2CCc3cc(F)ccc32)c1`, the AUC in series [1] was 100 ng·h/mL. The compound also had a half-life in series [2] of 33.6 min. The compound further came in with a bioavailability in series [3] of 2%. The same compound gave a Cmax in series [4] of 45 nM.

Regarding `CCOC(=O)C[C@@H](CN1CCc2cc(F)ccc21)NC(=O)[C@H](CCC1CCCCC1)NC(=O)c1cccc(OC)c1`, the AUC in series [1] is 308 ng·h/mL. In addition, the T1/2 entry in the series on Rattus norvegicus is on record as “Not Active”. Also, in series [3], the bioavailability is 8%. In series [4], the highest level (Cmax) was 293 nM.
